Earlier results in patent publication US8263645B2, “Disodium cromoglycate compositions and methods for administering same” (PARI Pharma GmbH, priority 2006, dated 2012).
Read-outs that look alike come from different tables or passages of the source.

How the values were obtained:
[1] = timed urine collections
[2] = test system: intermediate conductance chloride channels; conditions: channels activated following immunological stimulation

With `O=C([O-])c1cc(=O)c2c(OCC(O)COc3cccc4oc(C(=O)[O-])cc(=O)c34)cccc2o1.[Na+].[Na+]` [DSCG, disodium cromoglycate] as the compound, how does the lung deposition ([1]; 20 mg DSCG via Acron nebulizer (MMD=4.5 μm)) read?
The lung deposition was 1.5%.

And the lung deposition ([1]; 20 mg DSCG via pMDI)?
The lung deposition was 0.3%.

What about the chloride channel block [2] of the same compound?
Its chloride channel block is “block intermediate conductance chloride channels”.

What about the histamine release (rat mast cells; following antigen challenge) of the same compound?
The histamine release was “inhibition of histamine release”.

And the “influx of calcium ions” value (rat mast cells; rat mast cells)?
The value was “inhibited the influx of calcium ions”.
